Holding throughout (type): cell-based
For assay [1], the system named is GRB2-KO HeLa cells reconstituted with K109R mutant GRB2. Nature of the assay: SRB assay of olaparib-induced cytotoxicity. Particulars: Homo sapiens, GRB2-KO cells reconstituted with K109R GRB2, sulforhodamine B assay. From the text:
(§1) FIGS. 7A-7F. GRB2 KO sensitizes cells to PARPi. (FIG. 7A) MRE11 depletion levels with two different shRNA (KD1 and KD2) in U2OS cells with normal level of GRB2 (Ctrl) and GRB2-knockout (KO). (FIG. 7B) DR-GFP reporter assay in MRE11 knockdown control (Ctrl) and GRB2-KO U2OS cells. (FIG. 7C) DR-GFP reporter assay in PTEN-knockdown and/or GRB2-KO U2OS cells. (FIG. 7D) SRB assay of olaparib-induced cytotoxicity in control HeLa cells, GRB2-KO cells and GRB2-KO cells reconstituted with WT or K109R mutant GRB2. IC50 values are shown. (FIG. 7E) Clonogenic assay evaluating the effect of a PARPi on colony formation of HeLa cells. Cells were treated with the indicated concentrations of the PARPi olaparib and cultured for 10 days, then the resulting colonies were visualized with crystal violet staining and counted by Gelcount instrument. Parental control (WT), GRB2-KO (KO), ^WTGRB2 (KO+GRB2) and ^K109RGRB2 (KO+K109R) reconstituted HeLa cells. For each concentration on the X-axis, the columns represent, from left to right, WT, GRB2 KO, KO+GRB2, and KO+K109R. ***, p≤0.001; NS, not significant. (FIG. 7F) Bar graph representing Annexin-V/propidium iodide combined labeling and flow cytometry analysis of olaparib-treated control (WT), GRB2-KO, reconstituted ^WTGRB2(KO+GRB2) and K109R mutant (KO+K109R) HeLa cells. Cells were treated with either DMSO or 50 μM olaparib for 72 h. For each treatment group on the X-axis, the columns represent, from left to right, WT, GRB2 KO, KO+GRB2, and KO+K109R. All data are representative of three independent experiments. The significance was analyzed by two-sided student's t-test. *, p≤0.05; **, p≤0.01; ***, p≤0.001; NS, not significant.
(§2) Cell culture. HEK293T, NIH3T3 and A431 cells (purchased from ATCC) and mouse embryonic fibroblasts (MEFs) and H2AX-KO MEFs (gifts from Andre Nussenzweig, Center for Cancer Research, National Cancer Institute) were maintained in Dulbecco's modified Eagle's high-glucose medium (DMEM). HeLa cells (ATCC) were maintained in RPMI 1640 medium, HAP1 cells (Horizon Discovery) were maintained in Iscove's Modified Dulbecco's medium. U2OS cells (ATCC) were maintained in McCoy's 5A medium. Media were supplemented with 10% (vol/vol) fetal bovine serum (FBS) and 1% antibiotic/antimycotic (Lonza) in a humidified incubator with 10% CO2. Stable HEK293T cells containing Strep-tagged GRB2 or GRB2 mutants were produced as described previously (Ahmed et al., 2013). The I-SecI reporter assay (a generous gift from Jeremy Stark, City of Hope) was performed as described previously(Gunn and Stark, 2012). The sulforhodamine B (SRB) cytotoxicity and colony formation assays were performed as described previously(Houl et al., 2019).

The next assay deals with control HeLa cells. Nature of the assay: SRB assay of olaparib-induced cytotoxicity. Particulars: Homo sapiens; WT control HeLa cells, sulforhodamine B assay.
Text: as §1, §2
On the technique in general: Sulforhodamine B stains cellular protein and so reports cell mass.

Assay [2] relates to GRB2-KO HeLa cells. Nature of the assay: SRB assay of olaparib-induced cytotoxicity. Particulars: sulforhodamine B assay.
Text: as §1, §2

The subject of assay [3] is GRB2-KO HeLa cells reconstituted with WT GRB2. Nature of the assay: SRB assay of olaparib-induced cytotoxicity. The following applies: Homo sapiens, GRB2-KO cells reconstituted with WT GRB2, sulforhodamine B assay.
Text: as §1, §2

In assay [4] the test system is K109R GRB2 reconstituted HeLa cells. Nature of the assay: Clonogenic survival assay with olaparib. The following applies: cultured for 10 days.
Text: as §1, with “significant. […]” for “significant. (FIG. 7F) Bar graph representing Annexin-V/propidium iodide combined labeling and flow cytometry analysis of olaparib-treated control (WT), GRB2-KO, reconstituted ^WTGRB2(KO+GRB2) and K109R mutant (KO+K109R) HeLa cells. Cells were treated with either DMSO or 50 μM olaparib for 72 h. For each treatment group on the X-axis, the columns represent, from left to right, WT, GRB2 KO, KO+GRB2, and KO+K109R. All data are representative of three independent experiments.”, “significant. […]” for “significant.”

Assay [5] relates to GRB2-KO HeLa cells. Nature of the assay: Clonogenic survival assay with olaparib. The following applies: cultured for 10 days.
Text: as §1, with “significant. […]” for “significant. (FIG. 7F) Bar graph representing Annexin-V/propidium iodide combined labeling and flow cytometry analysis of olaparib-treated control (WT), GRB2-KO, reconstituted ^WTGRB2(KO+GRB2) and K109R mutant (KO+K109R) HeLa cells. Cells were treated with either DMSO or 50 μM olaparib for 72 h. For each treatment group on the X-axis, the columns represent, from left to right, WT, GRB2 KO, KO+GRB2, and KO+K109R. All data are representative of three independent experiments.”, “significant. […]” for “significant.”

For assay [6], the system named is K109R mutant (KO+K109R) HeLa cells. Nature of the assay: Annexin V/PI staining assay, flow cytometry. Particulars: K109R GRB2 reconstituted cells, 50 μM olaparib for 72 h.
Text: as §1
(§3) Annexin V/PI staining assay. To determine the percentage of olaparib-induced apoptotic cells, an Annexin V-propidium iodide (PI) staining assay was used according to the standard protocol (Life Technologies). […] After incubation for 15 min at room temperature in the dark, samples were analyzed on a flow cytometer (FACSCanto IL, BD Biosciences) for the detection of Annexin V- and PI-positive subpopulations. […]

In assay [7] the test system is GRB2-KO HeLa cells. Nature of the assay: Annexin V/PI staining assay, flow cytometry. Particulars: 50 μM olaparib for 72 h.
Text: as §1, §3

The subject of a further assay is control (WT) HeLa cells. Nature of the assay: Annexin V/PI staining assay, flow cytometry. The following applies: 50 μM olaparib for 72 h.
Text: as §1, §3
For orientation: Flow cytometry measures light scatter and fluorescence of single cells or particles in a stream.

Broadly, the IC50 is the midpoint of a concentration-inhibition curve. A lower IC50 goes with inhibition by little substance.

As to `O=C(c1cc(Cc2n[nH]c(=O)c3ccccc23)ccc1F)N1CCN(C(=O)C2CC2)CC1` [olaparib], the IC50 in [1] came to 20 ± 3 µM; in the assay on control HeLa cells, 124 ± 41 µM; in the assay with GRB2-KO HeLa cells [2] (Homo sapiens, HeLa, GRB2-KO cells), 18 ± 2.9 µM; in [3], 164 ± 47 µM. Moreover, the “sensitivity to olaparib, GRB2-KO cells versus WT control cells” value in the assay on GRB2-KO HeLa cells [2] was determined as 7 times. The “colony formation in response to olaparib” value (in assay [4]; with GRB2-KO HeLa cells [5]) was “severe reduction in colony formation” each time. For the same compound, in [6], the olaparib-induced apoptosis phenotype result is given as “failed to rescue the phenotype”. The olaparib-induced apoptosis was determined as 60% in the assay with GRB2-KO HeLa cells [7] and 20% with control (WT) HeLa cells.

Source of the values: patent US20230366033A1, “METHODS FOR TREATING CANCERS WITH INHIBITORS TARGETING THE ROLE OF GRB2 IN DNA REPAIR” (Board of Regents, The University of Texas System, priority 2020, published 2023).
